One substance from patent US9220719B2, “Single dose oral formulations and methods for treatment of cats with ectoparasiticidal spinosad” (priority 2012, dated 2015) can be followed below.

In the assay the test system is adult cat fleas (Ctenocephalides felis). The assay is described as follows: Dose confirmation: efficacy of beef flavored spinosad tablet against fleas on experimentally infested cats (Example 3). In kind it is in vivo. The settings on record: beef flavored tablet 50-75 mg/kg single oral dose. On the procedure: The treatment effect (insecticidal efficacy) of a beef flavored spinosad tablet when administered orally at a dose of 50-75 mg/kg against fleas (Ctenocephalides felis) on experimentally infested cats can be evaluated at one day post-administration and for the post-treatment prevention effect (residual efficacy) on Days 7, 14, 21 and 28.
In total, twenty-two (22) cats can be acclimatized for the study and from these, 17 can be selected based on pre-treatment weight and flea retention counts to be randomized into either a treated or control group. Nine cats can be assigned to the control group and eight cats can be assigned to the treatment group based on flea retention counts from Day −5. Cats in the treated group can be dosed on Day 0 with the intended final formulation, a beef flavored tablet containing spinosad at a dose rate of 50-75 mg/kg spinosad/body weight, while the cats in the control group can be dosed with a vehicle control tablet.
Each cat can be infested with approximately 100 fleas on Days −1, 7, 14, 21 and 28 and then combed and the fleas counted on Days 1, 9, 16, 23 and 30 respectively.
Seventeen cats were randomized based on pre-treatment flea infestation counts into either a treated or control group. Eight cats were dosed on Day 0 with a beef flavored tablet containing spinosad with an overall dose range of 51.47 to 76.06 mg/kg spinosad body weight. The other nine cats were dosed with a vehicle control tablet.

As for spinosad, the “Geometric Mean Percent Reduction of Adult C. felis Compared to Untreated Control Group” value was 100.0% (Day 1 post treatment); 100.0% (Day 7 (day of infestation, counted Day 9)); 99.69% (Day 14 (day of infestation, counted Day 16)); 99.45% (Day 21 (day of infestation, counted Day 23)); 98.05% (Day 28 (day of infestation, counted Day 30)).
